Source: US20230293432A1, “POLYMERIC MICELLES COMPRISING GLUCURONIDE-PRODRUGS” (Rheinisch-Westfälische Technische Hochschule (RWTH), priority 2020, published 2023)

Tested on: breast cancer 4T1 cells
Assay: In vitro calreticulin (CRT) translocation by flow cytometry
Type: cell-based
Settings: anti-CRT antibody staining, vs untreated control, FIG. 6A
Description: In a further experiment the ability of doxorubicin and doxorubicin double spacer prodrug and doxorubicin double spacer prodrug in polymeric micelles to induce immunogenicity of tumor cells was assessed in vitro. As one of the most studied phenotypes of immunogenic cell death, calreticulin (CRT) […] to outer surface of cancer cells is able to attract antigen presenting cells to endocytose apoptotic cancer cells. CRT translocation was measured by flow cryometry. To assess CRT translocation induced by the formulations, they were added to breast cancer 4T1 cells which were cultured overnight at 37° C. in RPMI 1640 medium containing 10% FBS and 1% penicillin. After incubation, the cells were washed with PBS and then detached. The CRT translocated to the outer surface of the cells was labeled with anti-CRT antibodies.

COc1cccc2c1C(=O)c1c(O)c3c(c(O)c1C2=O)C[C@@](O)(C(=O)CO)C[C@@H]3O[C@H]1C[C@H](N)[C@H](O)[C@H](C)O1 [DOX, doxorubicin]
signal of CRT in flow cytometry plots: higher signal of CRT compared to untreated control
